Experimental data taken from US9637472B2, “Substituted 6,5-fused bicyclic heteroaryl compounds” (Epizyme, Inc., priority 2011, dated 2017).

Target: EZH2 (Homo sapiens (Human), UniProt Q15910)
Assay: PRC2 enzyme assay on peptide substrates
Assay type: biochemical
Settings: PRC2 enzyme assays on peptide substrates; 4 nM enzyme, 30 min preincubation at 25° C.; read-out: EZH2 IC50
From the text: General Materials. S-adenosylmethionine (SAM), S-adenosylhomocyteine (SAH), bicine, KCl, Tween20, dimethylsulfoxide (DMSO) and bovine skin gelatin (BSG) were purchased from Sigma-Aldrich at the highest level of purity possible. Dithiothreitol (DTT) was purchased from EMD. ^3H-SAM was purchased from American Radiolabeled Chemicals with a specific activity of 80 Ci/mmol. 384-well streptavidin Flashplates were purchased from PerkinElmer.
Substrates. […] The sequences are listed below.
Recombinant PRC2 Enzymes. Human PRC2 enzymes were purified as 4-component enzyme complexes co-expressed in Spodoptera frugiperda (sf9) cells using a baculovirus expression system. The subunits expressed were wild-type EZH2 (NM_004456) or EZH2 Y641F, N, H, S or C mutants generated from the wild-type EZH2 construct, EED (NM_003797), Suz12 (NM_015355) and RbAp48 (NM_005610). The EED subunit contained an N-terminal FLAG tag that was used to purify the entire 4-component complex from sf9 cell lysates.
General Procedure for PRC2 Enzyme Assays on Peptide Substrates. The assays were all performed in a buffer consisting of 20 mM bicine (pH=7.6), 0.5 mM DTT, 0.005% BSG and 0.002% Tween20, prepared on the day of use. […] DMSO (1 μL) was added to columns 11, 12, 23, 24, rows A-H for the maximum signal control, and SAH, a known product and inhibitor of PRC2 (1 μL) was added to columns 11, 12, 23, 24, rows I-P for the minimum signal control. A cocktail (40 μL) containing the wild-type PRC2 enzyme and H3K27me0 peptide or any of the Y641 mutant enzymes and H3K27me2 peptide was added by Multidrop Combi (Thermo). The compounds were allowed to incubate with PRC2 for 30 min at 25° C., then a cocktail (10 μL) containing a mixture of non-radioactive and ^3H-SAM was added to initiate the reaction (final volume=51 μL). […] The assays were stopped by the addition of non-radioactive SAM (10 μL) to a final concentration of 600 μM, which dilutes the ^3H-SAM to a level where its incorporation into the peptide substrate is no longer detectable. 50 μL of the reaction in the 384-well polypropylene plate was then transferred to a 384-well Flashplate and the biotinylated peptides were allowed to bind to the streptavidin surface for at least 1 h before being washed three times with 0.1% Tween20 in a Biotek ELx405 plate washer. The plates were then read in a PerkinElmer TopCount platereader to measure the quantity of ^3H-labeled peptide bound to the Flashplate surface, measured as disintegrations per minute (dpm) or alternatively, referred to as counts per minute (cpm).
Where dpm=disintegrations per minute, cmpd=signal in assay well, and min and max are the respective minimum and maximum signal controls.
Where top and bottom are the normally allowed to float, but may be fixed at 100 or 0 respectively in a 3-parameter fit. The Hill Coefficient normally allowed to float but may also be fixed at 1 in a 3-parameter fit. Y is the % inhibition and X is the compound concentration.

EZH2, sequence (Q15910 other isoform, or with tags, fused parts or gaps): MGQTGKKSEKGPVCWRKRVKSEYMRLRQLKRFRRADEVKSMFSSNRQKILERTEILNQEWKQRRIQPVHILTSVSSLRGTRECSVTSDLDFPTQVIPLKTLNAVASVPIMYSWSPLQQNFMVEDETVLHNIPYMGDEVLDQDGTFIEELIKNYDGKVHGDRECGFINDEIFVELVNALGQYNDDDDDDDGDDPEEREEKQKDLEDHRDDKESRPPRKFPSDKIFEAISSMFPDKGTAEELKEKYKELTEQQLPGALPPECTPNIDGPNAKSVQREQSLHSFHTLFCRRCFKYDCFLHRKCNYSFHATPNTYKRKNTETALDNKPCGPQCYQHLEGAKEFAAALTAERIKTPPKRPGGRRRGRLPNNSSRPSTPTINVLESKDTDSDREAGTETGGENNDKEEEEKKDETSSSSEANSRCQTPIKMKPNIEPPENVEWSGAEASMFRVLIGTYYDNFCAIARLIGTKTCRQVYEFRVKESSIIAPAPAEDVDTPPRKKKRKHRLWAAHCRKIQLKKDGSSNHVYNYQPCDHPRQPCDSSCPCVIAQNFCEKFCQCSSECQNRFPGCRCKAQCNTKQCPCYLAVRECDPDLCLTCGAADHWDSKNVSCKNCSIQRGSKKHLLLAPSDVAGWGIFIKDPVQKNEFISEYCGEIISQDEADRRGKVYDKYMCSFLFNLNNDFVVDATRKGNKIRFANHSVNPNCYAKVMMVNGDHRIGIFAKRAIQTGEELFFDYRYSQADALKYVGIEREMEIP
EZH2, sequence (O75530 whole entry partner): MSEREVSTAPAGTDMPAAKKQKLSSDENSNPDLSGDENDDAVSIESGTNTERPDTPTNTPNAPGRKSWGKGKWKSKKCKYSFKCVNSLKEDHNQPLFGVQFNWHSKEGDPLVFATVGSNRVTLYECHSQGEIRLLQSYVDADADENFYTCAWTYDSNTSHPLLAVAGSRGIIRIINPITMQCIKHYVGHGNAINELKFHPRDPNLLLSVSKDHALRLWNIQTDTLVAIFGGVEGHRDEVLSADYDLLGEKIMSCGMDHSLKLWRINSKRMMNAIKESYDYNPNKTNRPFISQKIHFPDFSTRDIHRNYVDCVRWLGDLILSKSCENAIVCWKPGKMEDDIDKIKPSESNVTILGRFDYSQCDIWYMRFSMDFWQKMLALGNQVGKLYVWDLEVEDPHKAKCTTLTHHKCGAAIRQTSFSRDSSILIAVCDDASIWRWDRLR
EZH2, sequence (Q15022 whole entry partner): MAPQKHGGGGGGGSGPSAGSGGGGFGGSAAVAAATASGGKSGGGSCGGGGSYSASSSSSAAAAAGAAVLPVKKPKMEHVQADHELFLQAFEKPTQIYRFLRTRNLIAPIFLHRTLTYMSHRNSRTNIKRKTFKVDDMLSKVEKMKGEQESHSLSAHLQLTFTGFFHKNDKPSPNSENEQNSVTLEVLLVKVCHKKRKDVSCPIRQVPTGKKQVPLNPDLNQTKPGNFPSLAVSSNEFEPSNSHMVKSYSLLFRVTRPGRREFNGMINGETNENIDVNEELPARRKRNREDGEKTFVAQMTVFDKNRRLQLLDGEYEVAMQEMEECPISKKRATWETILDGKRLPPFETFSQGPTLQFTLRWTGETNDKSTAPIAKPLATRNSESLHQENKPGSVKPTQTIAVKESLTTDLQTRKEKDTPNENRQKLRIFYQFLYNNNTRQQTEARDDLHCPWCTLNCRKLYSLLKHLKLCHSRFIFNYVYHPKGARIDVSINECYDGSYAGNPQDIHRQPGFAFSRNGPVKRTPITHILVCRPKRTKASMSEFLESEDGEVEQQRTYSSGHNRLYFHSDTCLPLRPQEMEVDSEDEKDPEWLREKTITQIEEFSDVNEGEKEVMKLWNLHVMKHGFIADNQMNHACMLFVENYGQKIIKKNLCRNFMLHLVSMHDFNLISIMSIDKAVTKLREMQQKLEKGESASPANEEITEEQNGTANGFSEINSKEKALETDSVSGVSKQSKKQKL
EZH2, sequence (Q09028 whole entry partner): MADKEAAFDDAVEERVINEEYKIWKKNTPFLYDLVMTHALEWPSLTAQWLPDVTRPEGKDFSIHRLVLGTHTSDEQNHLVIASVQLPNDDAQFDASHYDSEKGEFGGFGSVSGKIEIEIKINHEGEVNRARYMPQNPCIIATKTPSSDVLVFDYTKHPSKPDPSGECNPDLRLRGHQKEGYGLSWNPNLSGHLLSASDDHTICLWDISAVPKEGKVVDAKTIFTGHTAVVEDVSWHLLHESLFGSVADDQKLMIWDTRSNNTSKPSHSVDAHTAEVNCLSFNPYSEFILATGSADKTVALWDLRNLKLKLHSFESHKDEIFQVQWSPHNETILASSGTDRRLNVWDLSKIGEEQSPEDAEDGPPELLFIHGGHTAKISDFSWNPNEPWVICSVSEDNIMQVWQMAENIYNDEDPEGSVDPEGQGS

| SMILES | IC50 [µM] |
| --- | --- |
| Cc1cc(C)c(CNC(=O)c2cc(-c3ccc(-c4ccccc4CN)nc3)nc3c2cnn3C(C)C)c(=O)[nH]1 [Compound A-68] | 3 to 10 |
| Cc1cc[nH]c(=O)c1CNC(=O)c1cc(-c2cccc(CN(C)CCN(C)C)c2)nc2c1cnn2C(C)C [Compound A-70] | 3 to 10 |
| CC(C)n1ncc2c(C(=O)NCc3cc4c([nH]c3=O)CCNC4)cc(-c3ccc4c(c3)OCCO4)nc21 [Compound A-71] | 10 to 50 |
| Cc1cc[nH]c(=O)c1CNC(=O)c1cc(-c2cccc(CN3CCN(C)CC3)c2)nc2c1cnn2C(C)C [Compound A-72] | 10 to 50 |
| Cc1cc(C)c(CN(C)C(=O)c2cc(-c3cccc(CN4CCN(C)CC4)c3)nc3c2cnn3C(C)C)c(=O)[nH]1 [Compound A-73] | 10 to 50 |
| Cc1cc(C)n(C)c(=O)c1CNC(=O)c1cc(-c2cccc(CN(C)CCN(C)C)c2)nc2c1CNN2C(C)C [Compound A-74] | 10 to 50 |
| Cc1cc[nH]c(=O)c1CNC(=O)c1cc(-c2ccc3c(c2)OCCO3)nc2c1cnn2C(C)C [Compound A-77] | 10 to 50 |
| Cc1cc(C)c(CNC(=O)c2cc(-c3cccc(CNC(=O)OC(C)(C)C)c3)nc3c2cnn3C(C)C)c(=O)[nH]1 [Compound A-92] | 1 to 3 |
| C=C(C)c1nn(C(C)C)c2nc(-c3ccc(CN4CCOCC4)cc3)cc(C(=O)NCc3c(C)cc(C)[nH]c3=O)c12 [Compound A-94] | 3 to 10 |
| Cc1cc(C)c(CNC(=O)c2cc(-c3cccnc3N3CCN(C(=O)OC(C)(C)C)CC3)nc3c2cnn3C(C)C)c(=O)[nH]1 [Compound A-95] | 3 to 10 |
| Cc1cc(CO)c(CNC(=O)c2cc(-c3ccc(CN4CCOCC4)cc3)nc3c2cnn3C(C)C)c(=O)[nH]1 [Compound A-96] | 3 to 10 |
| Cc1cc(C)c(CNC(=O)c2cc(-c3ccccc3CNC(=O)OC(C)(C)C)nc3c2cnn3C(C)C)c(=O)[nH]1 [Compound A-98] | 10 to 50 |
| Cc1ccc(CNC(=O)c2cc(-c3cccc(CN(C)CCN(C)C)c3)nc3c2cnn3C(C)C)c(=O)[nH]1 [Compound A-99] | 10 to 50 |
| Cc1ccc(CNC(=O)c2cc(-c3cccc(CN4CCN(C)CC4)c3)nc3c2cnn3C(C)C)c(=O)[nH]1 [Compound A-100] | 10 to 50 |
| Cc1cc(C)c(CNC(=O)c2cc(-c3ccc(N4CCN(C)CC4)nc3)nc3c2cnn3-c2ccccc2)c(=O)[nH]1 [Compound A-109] | 10 to 50 |
| CCc1ccc(CNC(=O)c2cc(-c3ccc4c(c3)OCCO4)nc3c2cnn3C(C)C)c(=O)[nH]1 [Compound A-110] | 10 to 50 |

| SMILES | IC50 [µM] |
| --- | --- |
| CC1=CC(C)=C(CNC(=O)c2cc(-c3cccc(CNCCCN(C)C)c3)nc3c2cnn3C(C)C)C(C)N1 (stereo not shown) [Compound A-125] | 1 to 3 |
| Cc1cc(C)c(CNC(=O)c2cc(-c3cccc(CNCCN4CCOCC4)c3)nc3c2cnn3C(C)C)c(=O)[nH]1 [Compound A-126] | 0.3 to 1 |
| Cc1cc(C)c(CNC(=O)c2cc(C3=CC(C)(C)NC(C)(C)C3)nc3c2cnn3C2CCN(Cc3ccccc3)CC2)c(=O)[nH]1 [Compound B-1, 1-(1-benzylpiperidin-4-yl)-N-((4,6-dimethyl-2-oxo-1,2-dihydropyridin-3-yl)methyl)-6-(2,2,6,6-tetramethyl-1,2,3,6-tetrahydropyridin-4-yl)-1H-pyrazolo[3,4-b]pyridine-4-carboxamide] | < 0.3 |
| CC(=O)N1CCC(n2ncc3c(C(=O)NCc4c(C)cc(C)[nH]c4=O)cc(C4=CC(C)(C)NC(C)(C)C4)nc32)CC1 [Compound B-2, 1-(1-acetylpiperidin-4-yl)-N-((4,6-dimethyl-2-oxo-1,2-dihydropyridin-3-yl)methyl)-6-(2,2,6,6-tetramethyl-1,2,3,6-tetrahydropyridin-4-yl)-1H-pyrazolo[3,4-b]pyridine-4-carboxamide] | 0.3 to 1 |
| C=C(C)Cn1ncc2c(C(=O)NCc3c(C)cc(C)[nH]c3=O)cc(C3=CC(C)(C)NC(C)(C)C3)nc21 [Compound B-3, N-((4,6-dimethyl-2-oxo-1,2-dihydropyridin-3-yl)methyl)-1-(2-methylallyl)-6-(2,2,6,6-tetramethyl-1,2,3,6-tetrahydropyridin-4-yl)-1H-pyrazolo[3,4-b]pyridine-4-carboxamide] | 1 to 3 |
| Cc1cc(C)c(CNC(=O)c2cc(C3=CC(C)(C)NC(C)(C)C3)nc3c2cnn3C2CCCC2)c(=O)[nH]1 [Compound B-5, 1-cyclopentyl-N-((4,6-dimethyl-2-oxo-1,2-dihydropyridin-3-yl)methyl)-6-(2,2,6,6-tetramethyl-1,2,3,6-tetrahydropyridin-4-yl)-1H-pyrazolo[3,4-b]pyridine-4-carboxamide] | < 0.3 |
| Cc1cc(C)c(CNC(=O)c2cc(OC3CCN(C)CC3)nc3c2cnn3C(C)C)c(=O)[nH]1 [Compound B-6, N-((4,6-dimethyl-2-oxo-1,2-dihydropyridin-3-yl)methyl)-1-isopropyl-6-((1-methylpiperidin-4-yl)oxy)-1H-pyrazolo[3,4-b]pyridine-4-carboxamide] | 0.3 to 1 |
| Cc1cc(C)c(CNC(=O)c2cc(C3CCN(C(=O)C4CN(C)C4)CC3)nc3c2cnn3C(C)C)c(=O)[nH]1 [Compound B-8, N-((4,6-dimethyl-2-oxo-1,2-dihydropyridin-3-yl)methyl)-1-isopropyl-6-(1-(1-methylazetidine-3-carbonyl)piperidin-4-yl)-1H-pyrazolo[3,4-b]pyridine-4-carboxamide] | < 0.3 |
| Cc1cc(C)c(CNC(=O)c2cc(N3CCN(C)CC3)nc3c2cnn3C(C)C)c(=O)[nH]1 [Compound B-9, N-((4,6-dimethyl-2-oxo-1,2-dihydropyridin-3-yl)methyl)-1-isopropyl-6-(4-methylpiperazin-1-yl)-1H-pyrazolo[3,4-b]pyridine-4-carboxamide] | 1 to 3 |
| Cc1cc(C)c(CNC(=O)c2cc(N3CCC(O)CC3)nc3c2cnn3C(C)C)c(=O)[nH]1 [Compound B-11, N-((4,6-dimethyl-2-oxo-1,2-dihydropyridin-3-yl)methyl)-6-(4-hydroxypiperidin-1-yl)-1-isopropyl-1H-pyrazolo[3,4-b]pyridine-4-carboxamide] | 1 to 3 |
| Cc1cc(C)c(CNC(=O)c2c(Cl)c(C3=CC(C)(C)NC(C)(C)C3)nc3c2cnn3C(C)C)c(=O)[nH]1 [Compound B-12, 5-chloro-N-((4,6-dimethyl-2-oxo-1,2-dihydropyridin-3-yl)methyl)-1-isopropyl-6-(2,2,6,6-tetramethyl-1,2,3,6-tetrahydropyridin-4-yl)-1H-pyrazolo[3,4-b]pyridine-4-carboxamide] | 1 to 3 |
| Cc1cc(C)c(CNC(=O)c2cc(C3=CC(C)(C)NC(C)(C)C3)nc3c2c(C)nn3C(C)C)c(=O)[nH]1 [Compound B-13, N-((4,6-dimethyl-2-oxo-1,2-dihydropyridin-3-yl)methyl)-1-isopropyl-3-methyl-6-(2,2,6,6-tetramethyl-1,2,3,6-tetrahydropyridin-4-yl)-1H-pyrazolo[3,4-b]pyridine-4-carboxamide] | 0.3 to 1 |
| Cc1cc(C)c(CNC(=O)c2cc(C3=CC(C)(C)NC(C)(C)C3)nc3c2cnn3C2CCC2)c(=O)[nH]1 [Compound B-14, 1-cyclobutyl-N-((4,6-dimethyl-2-oxo-1,2-dihydropyridin-3-yl)methyl)-6-(2,2,6,6-tetramethyl-1,2,3,6-tetrahydropyridin-4-yl)-1H-pyrazolo[3,4-b]pyridine-4-carboxamide] | 0.3 to 1 |
| Cc1cc(C)c(CNC(=O)c2cc(C3=CC(C)(C)NC(C)(C)C3)nc3c2cnn3C2COC2)c(=O)[nH]1 [Compound B-15, N-((4,6-dimethyl-2-oxo-1,2-dihydropyridin-3-yl)methyl)-1-(oxetan-3-yl)-6-(2,2,6,6-tetramethyl-1,2,3,6-tetrahydropyridin-4-yl)-1H-pyrazolo[3,4-b]pyridine-4-carboxamide] | 0.3 to 1 |
| Cc1cc(C)c(CNC(=O)c2cc(C3=CC(C)(C)NC(C)(C)C3)nc3c2cnn3C2CCCCC2)c(=O)[nH]1 [Compound B-16, 1-cyclohexyl-N-((4,6-dimethyl-2-oxo-1,2-dihydropyridin-3-yl)methyl)-6-(2,2,6,6-tetramethyl-1,2,3,6-tetrahydropyridin-4-yl)-1H-pyrazolo[3,4-b]pyridine-4-carboxamide] | < 0.3 |
